How the values were obtained:
Human HDAC1 = molecular target: T1, Human HDAC1 (Homo sapiens, UniProt Q13547); test: HDAC1 biochemical assay, AMC-labeled peptide substrate; settings: read-out: HDAC Isoform IC50 (nM) 1
T1 construct: full length with C-terminal His-tag and C-terminal FLAG-tag; His (C); FLAG (C); host or cells: baculovirus expression system
Outline: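 Baculovirus-expressed full-length human HDAC1 with His and FLAG tags, 0.3 ng/ul, incubated 1 h at 30° C with compound and 50 μM RHKK(Ac)AMC in Tris pH 8.0 buffer with BSA and 1% DMSO. Developer then releases AMC from deacetylated substrate; fluorescence read at 360/460 nm.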

Human HDAC4 = molecular target: T2, Human HDAC4 (Homo sapiens, UniProt P56524); test: HDAC4 biochemical assay, class IIa-specific substrate; settings: read-out: HDAC Isoform IC50 (nM) 4
T2 construct: amino acids 627-1085 with N-terminal GST tag; GST (N); host or cells: baculovirus expression system
Outline: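 GST-tagged human HDAC4 (aa 627-1085, baculovirus) at 0.004 ng/ul was incubated 30 min at room temperature with 50 μM class IIa-specific substrate BOC-Lys(trifluoroacetyl)-AMC in Tris-HCl pH 8.0 buffer with BSA, 1% DMSO. Developer then released AMC, read at 360/460 nm.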

Human HDAC5 = molecular target: T3, Human HDAC5 (Homo sapiens, UniProt Q9UQL6); test: HDAC5 biochemical assay, class IIa-specific substrate; settings: read-out: HDAC Isoform IC50 (nM) 5
T3 construct: full length with C-terminal His tag, MW=51.1 kDa; His (C); host or cells: baculovirus expression system
Outline: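 Full-length C-terminal His-tagged HDAC5 from baculovirus (0.05 ng/ul) incubated 30 min at room temperature with 50 μM Boc-Lys(trifluoroacetyl)-AMC and compound, Tris pH 8.0 buffer with BSA, 1% DMSO. Developer then releases AMC; fluorescence 360/460 nm.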

Recombinant human HDAC6 = molecular target: T4, Recombinant human HDAC6 (Homo sapiens, UniProt Q9UBN7); test: HDAC6 biochemical assay, AMC-labeled peptide substrate; settings: HDAC6; read-out: HDAC Isoform IC50 (nM) 6
T4 construct: full length, MW=159 kDa; GST (N); host or cells: Sf9 insect cells (baculovirus)
T4 sequence (Q9UBN7 1-1215): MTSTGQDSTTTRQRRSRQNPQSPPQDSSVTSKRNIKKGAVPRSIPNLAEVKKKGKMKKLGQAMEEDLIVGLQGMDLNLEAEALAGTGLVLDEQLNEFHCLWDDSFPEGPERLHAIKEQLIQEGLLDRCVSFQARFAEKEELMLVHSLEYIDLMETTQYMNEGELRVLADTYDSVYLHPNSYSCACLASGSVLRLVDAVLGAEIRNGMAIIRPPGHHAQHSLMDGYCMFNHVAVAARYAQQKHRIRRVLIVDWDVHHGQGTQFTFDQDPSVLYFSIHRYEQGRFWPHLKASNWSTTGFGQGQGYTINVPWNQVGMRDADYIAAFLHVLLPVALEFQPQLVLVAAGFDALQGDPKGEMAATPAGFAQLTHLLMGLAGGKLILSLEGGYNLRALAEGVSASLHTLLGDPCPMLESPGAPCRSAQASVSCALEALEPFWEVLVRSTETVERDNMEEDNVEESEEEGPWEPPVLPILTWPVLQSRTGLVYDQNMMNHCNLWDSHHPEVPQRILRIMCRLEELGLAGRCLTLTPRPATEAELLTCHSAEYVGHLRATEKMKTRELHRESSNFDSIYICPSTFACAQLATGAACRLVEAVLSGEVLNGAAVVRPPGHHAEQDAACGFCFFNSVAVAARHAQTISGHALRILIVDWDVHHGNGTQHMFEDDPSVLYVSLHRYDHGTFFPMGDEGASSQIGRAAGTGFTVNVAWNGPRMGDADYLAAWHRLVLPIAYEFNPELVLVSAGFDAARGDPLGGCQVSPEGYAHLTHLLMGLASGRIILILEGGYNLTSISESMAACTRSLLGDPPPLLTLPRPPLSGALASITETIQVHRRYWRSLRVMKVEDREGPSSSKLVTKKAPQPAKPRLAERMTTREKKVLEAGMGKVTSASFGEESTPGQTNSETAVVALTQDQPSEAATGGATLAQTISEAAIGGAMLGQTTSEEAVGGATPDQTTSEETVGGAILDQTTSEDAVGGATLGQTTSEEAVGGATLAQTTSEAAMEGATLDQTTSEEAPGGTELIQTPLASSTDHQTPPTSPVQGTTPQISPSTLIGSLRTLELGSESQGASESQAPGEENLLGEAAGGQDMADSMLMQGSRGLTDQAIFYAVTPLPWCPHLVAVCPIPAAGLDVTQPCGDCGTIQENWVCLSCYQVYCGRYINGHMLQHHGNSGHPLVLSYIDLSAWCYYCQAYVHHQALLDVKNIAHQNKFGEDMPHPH
Outline: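 Two-step fluorogenic read-out: enzyme deacetylates 50 μM RHKK(Ac)AMC for 1 h at 30° C in pH 8.0 Tris buffer with BSA and 1% DMSO, then developer cleavage gives signal at Ex 360/Em 460. Enzyme: 0.3 ng/ul recombinant full-length human HDAC6, GST-tagged, Sf9-expressed.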

Human HDAC7 = molecular target: T5, Human HDAC7 (Homo sapiens, UniProt Q8WUI4); test: HDAC7 biochemical assay, class IIa-specific substrate; settings: read-out: HDAC Isoform IC50 (nM) 7
T5 construct: (a.a. 518-end) with N-terminal GST tag; GST (N); host or cells: baculovirus expression system
T5 sequence (Q8WUI4 518-952 limits assumed): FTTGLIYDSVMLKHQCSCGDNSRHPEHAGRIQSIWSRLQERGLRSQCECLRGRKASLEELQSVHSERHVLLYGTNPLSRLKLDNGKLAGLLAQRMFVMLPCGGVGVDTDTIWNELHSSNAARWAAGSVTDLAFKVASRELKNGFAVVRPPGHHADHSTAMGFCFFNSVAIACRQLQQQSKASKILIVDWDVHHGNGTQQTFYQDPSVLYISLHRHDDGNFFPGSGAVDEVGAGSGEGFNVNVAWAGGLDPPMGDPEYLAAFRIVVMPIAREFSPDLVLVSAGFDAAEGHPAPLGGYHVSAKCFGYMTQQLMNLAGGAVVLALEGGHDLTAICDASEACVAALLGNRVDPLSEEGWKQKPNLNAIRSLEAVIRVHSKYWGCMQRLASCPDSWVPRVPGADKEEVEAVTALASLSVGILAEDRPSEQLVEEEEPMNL
Outline: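 GST-tagged HDAC7 (a.a. 518-end, baculovirus-expressed) at 0.001 ng/ul with 50 μM Boc-Lys(trifluoroacetyl)-AMC substrate, 30 min at room temperature in pH 8.0 Tris buffer with BSA, 1% DMSO final. Developer then releases AMC; fluorescence read at 360/460 nm.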

Human HDAC9 = molecular target: T6, Human HDAC9 (Homo sapiens, UniProt Q9UKV0); test: HDAC9 biochemical assay, class IIa-specific substrate; settings: read-out: HDAC Isoform IC50 (nM) 9
T6 construct: amino acids 604-1066 with C-terminal His tag; His (C); host or cells: baculovirus expression system
Outline: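 HDAC9 residues 604-1066 (C-terminal His tag, baculovirus-expressed) at 0.06 ng/ul with 50 μM class IIa substrate Boc-Lys(trifluoroacetyl)-AMC in Tris-HCl pH 8.0 buffer with BSA and 1% DMSO. 30 min at room temperature, then developer added; fluorescence read at 360/460 nm Ex/Em.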

T1 sequence (Q13547 whole entry, canonical isoform): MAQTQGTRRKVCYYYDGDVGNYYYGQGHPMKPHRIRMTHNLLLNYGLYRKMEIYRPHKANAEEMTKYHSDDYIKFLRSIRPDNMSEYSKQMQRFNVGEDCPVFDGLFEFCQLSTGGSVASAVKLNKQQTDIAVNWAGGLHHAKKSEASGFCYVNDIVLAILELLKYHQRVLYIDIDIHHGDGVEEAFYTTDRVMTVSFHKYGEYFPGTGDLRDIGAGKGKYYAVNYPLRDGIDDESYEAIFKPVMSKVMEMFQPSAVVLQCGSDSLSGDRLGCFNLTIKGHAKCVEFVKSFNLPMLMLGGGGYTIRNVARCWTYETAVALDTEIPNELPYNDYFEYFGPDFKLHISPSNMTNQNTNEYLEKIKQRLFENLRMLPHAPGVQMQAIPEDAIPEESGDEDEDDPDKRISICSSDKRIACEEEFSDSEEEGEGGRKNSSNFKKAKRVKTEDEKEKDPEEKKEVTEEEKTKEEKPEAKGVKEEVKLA
T3 sequence (Q9UQL6 656-1122 limits assumed): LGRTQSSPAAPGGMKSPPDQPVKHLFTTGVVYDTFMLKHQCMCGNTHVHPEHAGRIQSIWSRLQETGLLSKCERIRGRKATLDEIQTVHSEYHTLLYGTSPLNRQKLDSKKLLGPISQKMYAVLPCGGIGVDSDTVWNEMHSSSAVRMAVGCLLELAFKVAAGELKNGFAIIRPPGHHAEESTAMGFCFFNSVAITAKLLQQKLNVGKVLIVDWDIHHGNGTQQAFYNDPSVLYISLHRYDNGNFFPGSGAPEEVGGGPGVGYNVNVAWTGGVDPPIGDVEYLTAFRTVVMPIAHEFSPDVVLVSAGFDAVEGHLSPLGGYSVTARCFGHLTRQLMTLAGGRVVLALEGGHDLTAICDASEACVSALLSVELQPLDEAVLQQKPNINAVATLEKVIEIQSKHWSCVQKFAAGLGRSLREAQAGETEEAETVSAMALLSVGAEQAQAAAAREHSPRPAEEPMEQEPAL
T6 sequence (Q9UKV0 604-1066 isoform Q9UKV0-5): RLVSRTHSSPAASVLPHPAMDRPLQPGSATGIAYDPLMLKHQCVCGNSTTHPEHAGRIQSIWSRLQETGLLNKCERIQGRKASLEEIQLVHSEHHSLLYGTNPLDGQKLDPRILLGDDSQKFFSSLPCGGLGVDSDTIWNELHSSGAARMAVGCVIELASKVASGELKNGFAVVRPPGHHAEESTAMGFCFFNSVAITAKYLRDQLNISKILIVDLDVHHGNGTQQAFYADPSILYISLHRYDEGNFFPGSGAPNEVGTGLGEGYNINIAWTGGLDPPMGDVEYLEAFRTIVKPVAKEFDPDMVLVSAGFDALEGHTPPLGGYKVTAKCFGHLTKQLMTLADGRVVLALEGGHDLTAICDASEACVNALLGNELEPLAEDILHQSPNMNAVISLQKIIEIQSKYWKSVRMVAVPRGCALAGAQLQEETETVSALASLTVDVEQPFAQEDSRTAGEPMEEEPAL
T2 sequence (P56524 627-1084 limits assumed): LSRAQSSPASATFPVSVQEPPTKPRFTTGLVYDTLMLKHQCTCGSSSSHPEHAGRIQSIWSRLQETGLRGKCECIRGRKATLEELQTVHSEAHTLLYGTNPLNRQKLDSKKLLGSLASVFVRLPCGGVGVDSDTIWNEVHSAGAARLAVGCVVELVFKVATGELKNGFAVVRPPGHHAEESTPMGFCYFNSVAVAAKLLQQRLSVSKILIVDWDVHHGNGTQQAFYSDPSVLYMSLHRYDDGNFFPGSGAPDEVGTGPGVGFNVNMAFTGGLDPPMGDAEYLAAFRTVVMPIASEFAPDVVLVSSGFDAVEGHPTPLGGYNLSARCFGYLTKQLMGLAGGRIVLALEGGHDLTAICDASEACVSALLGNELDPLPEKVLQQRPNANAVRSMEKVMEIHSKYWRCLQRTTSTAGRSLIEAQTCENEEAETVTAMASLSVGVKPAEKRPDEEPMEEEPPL

Structure (SMILES)	IC50 (Human HDAC1)	IC50 (Human HDAC4)	IC50 (Human HDAC5)	IC50 (Recombinant human HDAC6)	IC50 (Human HDAC7)	IC50 (Human HDAC9)
FC(F)(F)c1nc(-c2ccc(CN(c3cnccn3)c3nccc4ncccc34)s2)no1 [Example AJ, N-(Pyrazin-2-yl)-N-({5-[5-(trifluoromethyl)-1,2,4-oxadiazol-3-yl]thiophen-2-yl}methyl)-1,6-naphthyridin-5-amine]	> 10000 nM	≤ 10000 nM	≤ 10000 nM	≤ 10000 nM	≤ 10000 nM	≤ 10000 nM
FC(F)(F)c1nc(-c2ccc(CN(c3cnccn3)c3cc(N4CCOCC4)ncn3)s2)no1 [Example CL, 6-(Morpholin-4-yl)-N-(pyrazin-2-yl)-N-({5-[5-(trifluoromethyl)-1,2,4-oxadiazol-3-yl]thiophen-2-yl}methyl)pyrimidin-4-amine]	> 10000 nM	≤ 10000 nM	≤ 10000 nM	≤ 10000 nM	≤ 10000 nM	≤ 10000 nM
FC(F)(F)c1cnnc(N(Cc2ccc(-c3noc(C(F)(F)F)n3)s2)c2ccccn2)c1 [Example EG, N-(Pyridin-2-yl)-5-(trifluoromethyl)-N-({5-[5-(trifluoromethyl)-1,2,4-oxadiazol-3-yl]thiophen-2-yl}methyl)pyridazin-3-amine]	> 10000 nM	≤ 10000 nM	≤ 10000 nM	≤ 10000 nM	> 10000 nM	> 10000 nM
FC(F)(F)c1cnnc(N(Cc2ccc(-c3noc(C(F)(F)F)n3)s2)c2ccc(C(F)(F)F)nn2)c1 [Example EV, 6-(Trifluoromethyl)-N-({5-[5-(trifluoromethyl)-1,2,4-oxadiazol-3-yl]thiophen-2-yl}methyl)-N-[5-(trifluoromethyl)pyridazin-3-yl]pyridazin-3-amine]	> 10000 nM	≤ 10000 nM	≤ 10000 nM	≤ 10000 nM	≤ 10000 nM	> 10000 nM

Continued, values first:

IC50 (Human HDAC1)	IC50 (Human HDAC4)	IC50 (Human HDAC5)	IC50 (Recombinant human HDAC6)	IC50 (Human HDAC7)	IC50 (Human HDAC9)	Structure (SMILES)
> 10000 nM	≤ 500 nM	≤ 1000 nM	≤ 1000 nM	≤ 1000 nM	≤ 1000 nM	FC(F)(F)c1nc(-c2ccc(CN(c3cnccn3)c3ccc4ccncc4n3)s2)no1 [Example Y, N-(Pyrazin-2-yl)-N-({5-[5-(trifluoromethyl)-1,2,4-oxadiazol-3-yl]thiophen-2-yl}methyl)-1,7-naphthyridin-2-amine]
> 10000 nM	≤ 10000 nM	≤ 10000 nM	≤ 10000 nM	≤ 10000 nM	≤ 10000 nM	Cc1ccnc(N(Cc2ccc(-c3noc(C(F)(F)F)n3)s2)c2cnccn2)n1 [Example AT, 4-Methyl-N-(pyrazin-2-yl)-N-({5-[5-(trifluoromethyl)-1,2,4-oxadiazol-3-yl]thiophen-2-yl}methyl)pyrimidin-2-amine]
> 10000 nM	≤ 500 nM	≤ 500 nM	≤ 10000 nM	≤ 1000 nM	≤ 1000 nM	Cc1ncc(N(Cc2ccc(-c3noc(C(F)(F)F)n3)s2)c2cnccn2)c(C)n1 [Example DB, 2,4-Dimethyl-N-(pyrazin-2-yl)-N-({5-[5-(trifluoromethyl)-1,2,4-oxadiazol-3-yl]thiophen-2-yl}methyl)pyrimidin-5-amine]
> 10000 nM	≤ 500 nM	≤ 500 nM	≤ 10000 nM	≤ 500 nM	≤ 1000 nM	FC(F)(F)c1nc(-c2ccc(CN(c3cnccn3)c3cncnc3C3CC3)s2)no1 [Example CZ, 4-Cyclopropyl-N-(pyrazin-2-yl)-N-({5-[5-(trifluoromethyl)-1,2,4-oxadiazol-3-yl]thiophen-2-yl}methyl)pyrimidin-5-amine]
> 10000 nM	≤ 10000 nM	≤ 1000 nM	≤ 10000 nM	≤ 10000 nM	≤ 10000 nM	FC(F)(F)c1cncc(N(Cc2ccc(-c3noc(C(F)(F)F)n3)s2)c2cnccn2)c1 [Example AQ, N-({5-[5-(Trifluoromethyl)-1,2,4-oxadiazol-3-yl]thiophen-2-yl}methyl)-N-[5-(trifluoromethyl)pyridin-3-yl]pyrazin-2-amine]

From patent US20210038607A1, “OXADIAZOLYLTHIOPHENE DERIVATIVES USEFUL AS HISTONE DEACETYLASE INHIBITORS” (Karus Therapeutics Limited, priority 2018, published 2021)
